Measured values taken from ChEMBL document CHEMBL4665650, “Towards a TREK-1/2 (TWIK-Related K+ Channel 1 and 2) dual activator tool compound: Multi-dimensional optimization of BL-1249” (Bioorg Med Chem Lett, 2019).

Key:
[1] = biological target: T1, Potassium channel subfamily K member 10 (Homo sapiens, UniProt P57789); assay: Activation of human TREK2 by thallium flux mobilization assay
T1 sequence (P57789 whole entry): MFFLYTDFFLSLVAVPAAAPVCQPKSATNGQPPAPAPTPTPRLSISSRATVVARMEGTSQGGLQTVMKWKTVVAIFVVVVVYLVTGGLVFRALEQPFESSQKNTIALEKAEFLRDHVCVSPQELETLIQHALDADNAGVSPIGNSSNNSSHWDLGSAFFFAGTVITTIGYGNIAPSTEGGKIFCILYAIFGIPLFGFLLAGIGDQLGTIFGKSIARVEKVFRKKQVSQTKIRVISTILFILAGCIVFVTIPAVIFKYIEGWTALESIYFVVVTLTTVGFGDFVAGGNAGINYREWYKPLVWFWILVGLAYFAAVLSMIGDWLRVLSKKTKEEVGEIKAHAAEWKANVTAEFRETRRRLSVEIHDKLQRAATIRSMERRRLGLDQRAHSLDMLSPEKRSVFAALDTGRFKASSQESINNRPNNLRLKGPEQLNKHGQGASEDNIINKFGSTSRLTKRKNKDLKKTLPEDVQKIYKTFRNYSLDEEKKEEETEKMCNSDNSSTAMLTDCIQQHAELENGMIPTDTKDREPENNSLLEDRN

[2] = biological target: T2, Potassium channel subfamily K member 2 (Homo sapiens, UniProt O95069); assay: Activation of human TREK1 by thallium flux mobilization assay
T2 sequence (O95069 whole entry): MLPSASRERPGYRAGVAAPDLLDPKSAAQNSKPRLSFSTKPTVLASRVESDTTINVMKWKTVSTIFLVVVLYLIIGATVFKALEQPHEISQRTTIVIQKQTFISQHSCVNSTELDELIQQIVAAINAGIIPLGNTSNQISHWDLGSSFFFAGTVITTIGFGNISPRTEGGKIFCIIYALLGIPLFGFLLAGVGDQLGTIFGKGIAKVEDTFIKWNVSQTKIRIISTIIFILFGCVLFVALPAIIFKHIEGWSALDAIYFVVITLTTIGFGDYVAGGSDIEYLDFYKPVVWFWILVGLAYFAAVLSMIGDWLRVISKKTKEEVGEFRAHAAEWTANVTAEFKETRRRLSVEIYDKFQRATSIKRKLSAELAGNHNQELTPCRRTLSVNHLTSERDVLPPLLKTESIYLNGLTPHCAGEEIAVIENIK

[3] = biological target: T3, Potassium channel subfamily K member 10 (Homo sapiens) (UniProt P57789); assay: Activation of human TREK2 at 30 uM by thallium flux mobilization assay relative to control
T3 sequence (whole entry): T1 sequence (P57789 whole entry)

[4] = biological target: T4, Potassium channel subfamily K member 2 (Homo sapiens) (UniProt O95069); assay: Activation of human TREK1 at 30 uM by thallium flux mobilization assay relative to control
T4 sequence (whole entry): T2 sequence (O95069 whole entry)

[5] = Fraction unbound in mouse plasma; assay type: ADME, cell-free
[6] = Fraction unbound in human plasma; assay type: ADME, cell-free
[7] = Fraction unbound in rat plasma; assay type: ADME, cell-free
[8] = biological target: T3, Potassium channel subfamily K member 10 (Homo sapiens); assay: Activation of human TREK2 at 10 uM by thallium flux mobilization assay relative to control
[9] = biological target: T4, Potassium channel subfamily K member 2 (Homo sapiens); assay: Activation of human TREK1 at 10 uM by thallium flux mobilization assay relative to control

Row | SMILES | EC50 [1] | EC50 [2] | Activity ([4]; filed as activator) | Activity [3] | Activity [4] | also measured
1 | O=C(Nc1ccc(OC(F)(F)F)cc1C(=O)O)c1ccc(SC(F)(F)F)cc1 | 5.6 µM | 4.6 µM | 57% | – | – | Activity ([3]; filed as activator): 60%
2 | O=C(Nc1nccnc1C(=O)O)c1ccc(SC(F)(F)F)cc1 | – | – | – | 0% | -6% | –
3 | O=C(Nc1cc(Cl)ccc1C(=O)O)c1ccc(SC(F)(F)F)cc1 | 7.5 µM | 4.4 µM | 66% | – | – | Activity ([3]; filed as activator): 73%
4 | Cc1sc(NC(=O)c2ccc(SC(F)(F)F)cc2)c(C(=O)O)c1C | < 3.6 µM | < 3.1 µM | – | 12% | 31% | –
5 | O=C(Nc1ncccc1C(=O)O)c1ccc(SC(F)(F)F)cc1 | – | – | – | 1% | -4% | –
6 | O=C(Nc1sccc1C(=O)O)c1ccc(SC(F)(F)F)cc1 | > 30 µM | > 30 µM | 58% | 28% | – | –
7 | O=C(Nc1ncncc1C(=O)O)c1ccc(SC(F)(F)F)cc1 | – | – | – | 0% | -4% | –
8 | O=C(Nc1sc(-c2ccccc2)cc1C(=O)O)c1ccc(SC(F)(F)F)cc1 | > 30 µM | 22.4 µM | 83% | – | – | Activity ([3]; filed as activator): 49%
9 | O=C(Nc1ccccc1-c1nnn[nH]1)c1cccc2c1CCCC2 | – | – | – | – | – | Activity [8]: 2%; Activity [9]: 6%

Second part, led by results:

Row | EC50 [1] | EC50 [2] | Activity ([4]; filed as activator) | Activity [3] | Activity [4] | SMILES | also measured
10 | 7.7 µM | 5.9 µM | 114% | – | – | O=C(Nc1ccc(Br)cc1C(=O)O)c1ccc(SC(F)(F)F)cc1 | Activity ([3]; filed as activator): 101%; fraction unbound [5]: 0.029; fraction unbound [6]: 0.003; fraction unbound [7]: 0.013
11 | – | – | – | 0% | -6% | O=C(O)Cc1ccccc1NC(=O)c1ccc(C(F)(F)F)cc1 | –
12 | – | – | – | 12% | 28% | O=C(Nc1ccccc1C(=O)O)c1ccc(C(F)(F)F)cc1 | –
13 | – | – | – | 2% | 5% | O=C(O)Cc1ccccc1NC(=O)c1cccc(C(F)(F)F)c1 | –
14 | – | – | – | 1% | -1% | O=C(O)Cc1cccc(NC(=O)c2cccc(C(F)(F)F)c2)c1 | –
15 | – | – | – | 17% | 40% | O=C(Nc1ccccc1C(=O)O)c1cccc(SC(F)(F)F)c1 | –
16 | 5 µM | 12.8 µM | 50% | 17% | – | O=C(Nc1ccccc1C(=O)O)c1ccc(SC(F)(F)F)cc1 | fraction unbound [5]: 0.081; fraction unbound [6]: 0.026; fraction unbound [7]: 0.04
17 | – | – | – | -3% | 1% | O=C(O)c1ccccc1NC(=O)c1ccccc1C(F)(F)F | –
18 | – | – | – | -3% | -10% | O=C(O)c1cccc(NC(=O)c2cccc(C(F)(F)F)c2)c1 | –
